Measurements reported in article PMC10141516 (Pharmaceutics, 2023).
Each block holds one molecule with its values, some of them ahead of it.

Experiment: Apparent solubility test (USP <1236>)
Conditions: for solubility: 20 °C, thermodynamic from solid; for apparent solubility, USP <1236> term: other solvents (water, pH 1.2 to 12.0 buffers)
Method: Then, 200 μL of each solvent was added and stirred at 400 rpm. The temperature of the sample was maintained at 20 ± 2 °C. After shaking for 30 s every 5 min, 200 μL of each solvent was added until no particles of the API were visible. The apparent solubility of the two main components was estimated through the point at which all of the API dissolved and became clear.

solubility (acetonitrile, organic solvent or mixture): 33 to 100 mg/mL
solubility (buffer solution, pH 3, aqueous buffer): 0.1 to 1 mg/mL
solubility (buffer solution, pH 4, aqueous buffer): 0.1 to 1 mg/mL
solubility (buffer solution, pH 5, aqueous buffer): 0.1 to 1 mg/mL
solubility (buffer solution, pH 6, aqueous buffer): 0.1 to 1 mg/mL
solubility (buffer solution, pH 6.8, aqueous buffer): 0.1 to 1 mg/mL
solubility (buffer solution, pH 7, aqueous buffer): 0.1 to 1 mg/mL
solubility (buffer solution, pH 8, aqueous buffer): 0.1 to 1 mg/mL
solubility (buffer solution, pH 9, aqueous buffer): 0.1 to 1 mg/mL
solubility (buffer solution, pH 10, aqueous buffer): 0.1 to 1 mg/mL
solubility (buffer solution, pH 11, aqueous buffer): 0.1 to 1 mg/mL
solubility (deionized water, water): 0.1 to 1 mg/mL
solubility (ethanol, organic solvent or mixture): 33 to 100 mg/mL
solubility (methanol, organic solvent or mixture): 100 to 1000 mg/mL
apparent solubility, USP <1236> term: very slightly soluble
solubility (pH 1.2 buffer solution, pH 1.2, aqueous buffer): 0.1 to 1 mg/mL
solubility (pH 2.0 buffer solution, pH 2, aqueous buffer): 0.1 to 1 mg/mL
solubility (pH 12.0 buffer solution, pH 12, aqueous buffer): 0.1 to 1 mg/mL
SMILES: CCOc1ccc(Cc2cc([C@@H]3O[C@H](CO)[C@@H](O)[C@H](O)[C@H]3O)ccc2Cl)cc1 [Dapagliflozin, (1S)-1,5-Anhydro-1-C-[4-chloro-3-[(4-ethoxyphenyl)methyl]phenyl]-D-glucitol (S)-propane-1,2-diol (1:1) monohydrate]

SMILES: N[C@@H](CC(=O)N1CCn2c(nnc2C(F)(F)F)C1)Cc1cc(F)c(F)cc1F.O.O=P(O)(O)O [Sitagliptin, (R)-3-Amino-1-(3-(trifluoromethyl)-5,6-dihydro-[1,2,4]triazolo[4,3-a]pyrazin-7(8H)-yl)-4-(2,4,5-trifluorophenyl)butan-1-one phosphate monohydrate]
solubility (organic solvent or mixture): < 0.1 mg/mL
solubility (pH 1.2, aqueous buffer): 1 to 10 mg/mL
solubility (pH 2, aqueous buffer): 1 to 10 mg/mL
solubility (pH 3, aqueous buffer): 1 to 10 mg/mL
solubility (pH 4, aqueous buffer): 1 to 10 mg/mL
solubility (pH 5, aqueous buffer): 1 to 10 mg/mL
solubility (pH 6, aqueous buffer): 1 to 10 mg/mL
solubility (pH 6.8, aqueous buffer): 1 to 10 mg/mL
solubility (pH 7, aqueous buffer): 1 to 10 mg/mL
solubility (pH 8, aqueous buffer): 1 to 10 mg/mL
solubility (pH 9, aqueous buffer): 1 to 10 mg/mL
solubility (pH 10, aqueous buffer): 0.1 to 1 mg/mL
solubility (pH 11, aqueous buffer): 1 to 10 mg/mL
solubility (pH 12, aqueous buffer): 1 to 10 mg/mL
solubility (water): 1 to 10 mg/mL
apparent solubility, USP <1236> term: soluble
